Consider three molecules from patent publication US20130084257A1, “TRANSDERMAL ABSORPTION PROMOTER, AND EXTERNAL SKIN FORMULATION THEREOF” (TAKASAGO INTERNATIONAL CORPORATION, priority 2010, published 2013).

Like-named read-outs stand apart in the source and are kept apart here.

The conditions of data set [1]: hairless, mouse, 2 mass %, pH 7.4.
Description: (§1) A skin specimen extirpated from a hairless mouse was placed in a vertical diffusion cell, with the dermal horny layer side being in the donor side and the dermal basement membrane side being in the receiver side. 16 mL of a phosphate-buffered physiological saline solution (PBS solution) (pH 7.4) was added to the receiver side. The cell was heated in a water bath at 37° C. 30 minutes after starting heating, 1.0 g of a hydrogel, having been heated to 37° C., was applied to the donor side using a needleless syringe. The receiver solution was collected in 1 mL portions at specific time intervals. To the receiver side, the PBS solution was added in 1 mL portions to make up for the collected portions.
(§2) The receiver solution thus collected was subjected to high performance liquid chromatography (HPLC) and the amount of permeated paroxetine was calculated.
The nature of data set [2]: Skin permeability test: effect of promoting transdermal absorption of paroxetine (vertical diffusion cell). Format: in vitro ADME. To be noted: hydrogel with 1 mass % paroxetine and 2 mass % test sample; hairless mouse skin; receiver PBS pH 7.4; 37° C.; n = 5. From the text:
As a control, purified water was used as a substitute for the test samples.
Device: Elite LaChrom System (manufactured by Hitachi Ltd.)
Column: YMS-Pack ODS-A 4.6 mm×150 mm (manufactured by YMC Co., Ltd.)
Eluent: phosphate buffer (pH 3.5)/acetonitrile=35/65 (V/V)
Measurement wavelength: 235 nm

Data set [3] in a line: Skin permeability test: effect of promoting transdermal absorption of antipyrine (vertical diffusion cell). Conditions: hydrogel with 2 mass % antipyrine and 2 mass % test sample; hairless mouse skin; receiver PBS pH 7.4; 37° C.; n = 5.
Description: as §1, §2

With `CC1CCC(C(C)C)C(OCC(C)(O)CO)C1` (centres unmarked) [CA1, 2-methyl-3-(menthoxy)propane-1,2-diol], in data set [1], the “Flux of antipyrine (transdermal absorption amount per unit time and unit area)” value stood at 150.71 ± 5.46 μg/cm^2/h; the “Lagtime of antipyrine (transdermal absorption speed)” value stood at 3.20 ± 0.24 h.
On the same counts, the results for `CC1CCC(C(C)C)C(OCCO)C1` (centres unmarked) [CA5, 2-(menthoxy)ethanol] are 224.59 ± 19.56 μg/cm^2/h and 1.36 ± 0.28 h.
Turning to `CC1CCC(C(C)C)C(O)C1` (centres unmarked) [Sample 1-Menthol, 1-menthol], in data set [2], the “Flux of paroxetine (transdermal absorption amount per unit time and unit area)” value was 185 ± 31.1 μg/cm^2/h; the “Lagtime of paroxetine (transdermal absorption speed)” value turned out to be 3.84 ± 1.60 h. In data set [3], the “Flux of antipyrine (transdermal absorption amount per unit time and unit area)” value stood at 300.52 ± 34.42 μg/cm^2/h; the “Lagtime of antipyrine (transdermal absorption speed)” value was found to be 0.53 ± 0.02 h.
